Laboratory results reported in ChEMBL document CHEMBL1201862, “PubChem BioAssay data set” (2004).
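96-well plates; 48 h exposure; 5 concentrations. Endpoints by linear interpolation between flanking doses. Not reached: highest tested concentration assigned. GI50 is the concentration that inhibits growth by half.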 Calls of active or inactive are those of the source. Rule as the data show it: active = GI50 up to about 1.1 µM and inactive = higher.

How the values were obtained:
Experiment in all cases: growth of human tumour cells (NCI), 48 h
[1] = system: A498
[2] = system: A549
[3] = system: BT-549
[4] = system: CCRF-CEM
[5] = system: HCT-116
[6] = system: HOP-62
[7] = system: HT-29
[8] = system: IGROV-1
[9] = system: LOX IMVI
[10] = system: MDA-N
[11] = system: NCI-H23
[12] = system: NCI-H522
[13] = system: NCI/ADR-RES
[14] = system: OVCAR-8
[15] = system: SK-MEL-28
[16] = system: SN12C
[17] = system: SNB-19
[18] = system: SNB-75
[19] = system: TK-10
[20] = system: U-251

SMILES	GI50 [1]	GI50 [2]	GI50 [3]	GI50 [4]	GI50 [5]	GI50 [6]	GI50 [7]	GI50 [8]	GI50 [9]	GI50 [10]	GI50 [11]	GI50 [12]	GI50 [13]	GI50 [14]	GI50 [15]	GI50 [16]	GI50 [17]	GI50 [18]	GI50 [19]	GI50 [20]
N#C/C(=C\Nc1ccccn1)C(=O)C1CC1	> 100 µM (inactive)	> 100 µM (inactive)	> 100 µM (inactive)	76.9 µM (inactive)	> 100 µM (inactive)	> 100 µM (inactive)	> 100 µM (inactive)	> 100 µM (inactive)	> 100 µM (inactive)	> 100 µM (inactive)	> 100 µM (inactive)	> 100 µM (inactive)	> 100 µM (inactive)	> 100 µM (inactive)	> 100 µM (inactive)	> 100 µM (inactive)	> 100 µM (inactive)	> 100 µM (inactive)	> 100 µM (inactive)	> 100 µM (inactive)
Cc1ccc2c(c1)nc(N)n[n+]2[O-]	> 100 µM (inactive)	> 100 µM (inactive)	> 100 µM (inactive)	> 100 µM (inactive)	> 100 µM (inactive)	> 100 µM (inactive)	> 100 µM (inactive)	> 100 µM (inactive)	> 100 µM (inactive)	> 100 µM (inactive)	> 100 µM (inactive)	> 100 µM (inactive)	> 100 µM (inactive)	> 100 µM (inactive)	> 100 µM (inactive)	> 100 µM (inactive)	> 100 µM (inactive)	85.9 µM (inactive)	> 100 µM (inactive)	> 100 µM (inactive)
OCCCCn1cc(Cn2ncc3c(SCc4ccccc4)ncnc32)nn1	43.5 µM (inactive)	42.7 µM (inactive)	34.7 µM (inactive)	45.5 µM (inactive)	33.6 µM (inactive)	44.1 µM (inactive)	40.5 µM (inactive)	77.6 µM (inactive)	72.4 µM (inactive)	15.7 µM (inactive)	54.2 µM (inactive)	29.2 µM (inactive)	21.6 µM (inactive)	58.3 µM (inactive)	51.2 µM (inactive)	63 µM (inactive)	65.5 µM (inactive)	38.7 µM (inactive)	> 100 µM (inactive)	39.2 µM (inactive)
O=C(C[N+]12CN3CN(CN(C3)C1)C2)c1ccc(-c2ccccc2)cc1	19.6 µM (inactive)	30.1 µM (inactive)	29.9 µM (inactive)	1.71 µM (inactive)	18.8 µM (inactive)	23 µM (inactive)	22.5 µM (inactive)	24.3 µM (inactive)	15.3 µM (inactive)	21.8 µM (inactive)	23.3 µM (inactive)	19.3 µM (inactive)	33.4 µM (inactive)	32 µM (inactive)	17.6 µM (inactive)	19.7 µM (inactive)	22.6 µM (inactive)	19.7 µM (inactive)	21.2 µM (inactive)	16.8 µM (inactive)
NC(=O)NC(=O)c1cccc(NC(=O)CI)c1	0.231 µM (active)	0.805 µM (active)	0.0473 µM (active)	< 0.01 µM (active)	< 0.01 µM (active)	0.103 µM (active)	< 0.0178 µM (active)	0.0483 µM (active)	< 0.0132 µM (active)	< 0.01 µM (active)	< 0.0212 µM (active)	< 0.01 µM (active)	0.039 µM (active)	< 0.0123 µM (active)	0.389 µM (active)	< 0.0197 µM (active)	0.646 µM (active)	0.235 µM (active)	< 0.0146 µM (active)	0.0291 µM (active)
